The NIST ThermoML archive (doi:10.1016/j.jct.2016.08.005)
Numbers after ± are expanded uncertainties.

Details: Liquid, Vibrating tube method

Cc1cccs1 [2-methylthiophene]
Details | mass density [kg/m3]
283.15 K, 100 kPa | 1030.98 ± 0.53
283.15 K, 2000 kPa | 1032.44 ± 0.53
283.15 K, 5000 kPa | 1034.69 ± 0.53
283.15 K, 7000 kPa | 1036.18 ± 0.53
283.15 K, 10000 kPa | 1038.39 ± 0.53
283.15 K, 15000 kPa | 1041.92 ± 0.54
283.15 K, 20000 kPa | 1045.36 ± 0.54
283.15 K, 25000 kPa | 1048.69 ± 0.54
283.15 K, 30000 kPa | 1051.93 ± 0.55
283.15 K, 35000 kPa | 1055.07 ± 0.56
283.15 K, 40000 kPa | 1058.12 ± 0.56
283.15 K, 45000 kPa | 1061.09 ± 0.57
283.15 K, 50000 kPa | 1063.97 ± 0.58
283.15 K, 55000 kPa | 1066.8 ± 0.59
283.15 K, 60000 kPa | 1069.53 ± 0.6
283.15 K, 65000 kPa | 1072.21 ± 0.61
288.15 K, 100 kPa | 1025.61 ± 0.53
288.15 K, 2000 kPa | 1027.12 ± 0.53
288.15 K, 5000 kPa | 1029.45 ± 0.53
288.15 K, 7000 kPa | 1030.97 ± 0.53
288.15 K, 10000 kPa | 1033.22 ± 0.53
288.15 K, 15000 kPa | 1036.86 ± 0.53
288.15 K, 20000 kPa | 1040.39 ± 0.54
288.15 K, 25000 kPa | 1043.79 ± 0.54
288.15 K, 30000 kPa | 1047.1 ± 0.55
288.15 K, 35000 kPa | 1050.32 ± 0.55
288.15 K, 40000 kPa | 1053.43 ± 0.56
288.15 K, 45000 kPa | 1056.47 ± 0.57
288.15 K, 50000 kPa | 1059.42 ± 0.58
288.15 K, 55000 kPa | 1062.27 ± 0.58
288.15 K, 60000 kPa | 1065.07 ± 0.59
288.15 K, 65000 kPa | 1067.79 ± 0.6
293.15 K, 100 kPa | 1020.2 ± 0.52
293.15 K, 2000 kPa | 1021.76 ± 0.52
293.15 K, 5000 kPa | 1024.16 ± 0.53
293.15 K, 7000 kPa | 1025.73 ± 0.53
293.15 K, 10000 kPa | 1028.04 ± 0.53
293.15 K, 15000 kPa | 1031.77 ± 0.53
293.15 K, 20000 kPa | 1035.39 ± 0.54
293.15 K, 25000 kPa | 1038.88 ± 0.54
293.15 K, 30000 kPa | 1042.27 ± 0.54
293.15 K, 35000 kPa | 1045.56 ± 0.55
293.15 K, 40000 kPa | 1048.68 ± 0.56
293.15 K, 45000 kPa | 1051.85 ± 0.56
293.15 K, 50000 kPa | 1054.87 ± 0.57
293.15 K, 55000 kPa | 1057.79 ± 0.58
293.15 K, 60000 kPa | 1060.64 ± 0.59
293.15 K, 65000 kPa | 1063.42 ± 0.6
298.15 K, 100 kPa | 1014.79 ± 0.52
298.15 K, 2000 kPa | 1016.39 ± 0.52
298.15 K, 5000 kPa | 1018.85 ± 0.52
298.15 K, 7000 kPa | 1020.48 ± 0.53
298.15 K, 10000 kPa | 1022.84 ± 0.53
298.15 K, 15000 kPa | 1026.7 ± 0.53
298.15 K, 20000 kPa | 1030.4 ± 0.53
298.15 K, 25000 kPa | 1033.98 ± 0.54
298.15 K, 30000 kPa | 1037.45 ± 0.54
298.15 K, 35000 kPa | 1040.82 ± 0.55
298.15 K, 40000 kPa | 1044.09 ± 0.55
298.15 K, 45000 kPa | 1047.25 ± 0.56
298.15 K, 50000 kPa | 1050.33 ± 0.56
298.15 K, 55000 kPa | 1053.31 ± 0.57
298.15 K, 60000 kPa | 1056.23 ± 0.58
298.15 K, 65000 kPa | 1059.07 ± 0.59
303.15 K, 100 kPa | 1009.39 ± 0.52
303.15 K, 2000 kPa | 1011.03 ± 0.52
303.15 K, 5000 kPa | 1013.57 ± 0.52
303.15 K, 7000 kPa | 1015.23 ± 0.52
303.15 K, 10000 kPa | 1017.69 ± 0.53
303.15 K, 15000 kPa | 1021.62 ± 0.53
303.15 K, 20000 kPa | 1025.42 ± 0.53
303.15 K, 25000 kPa | 1029.11 ± 0.53
303.15 K, 30000 kPa | 1032.66 ± 0.54
303.15 K, 35000 kPa | 1036.1 ± 0.54
303.15 K, 40000 kPa | 1039.44 ± 0.55
303.15 K, 45000 kPa | 1042.68 ± 0.55
303.15 K, 50000 kPa | 1045.81 ± 0.56
303.15 K, 55000 kPa | 1048.89 ± 0.57
303.15 K, 60000 kPa | 1051.84 ± 0.58
303.15 K, 65000 kPa | 1054.72 ± 0.58
308.15 K, 100 kPa | 1003.95 ± 0.52
308.15 K, 2000 kPa | 1005.62 ± 0.52
308.15 K, 5000 kPa | 1008.23 ± 0.52
308.15 K, 7000 kPa | 1009.96 ± 0.52
308.15 K, 10000 kPa | 1012.46 ± 0.52
308.15 K, 15000 kPa | 1016.53 ± 0.53
308.15 K, 20000 kPa | 1020.43 ± 0.53
308.15 K, 25000 kPa | 1024.2 ± 0.53
308.15 K, 30000 kPa | 1027.84 ± 0.53
308.15 K, 35000 kPa | 1031.36 ± 0.54
308.15 K, 40000 kPa | 1034.78 ± 0.54
308.15 K, 45000 kPa | 1038.08 ± 0.55
308.15 K, 50000 kPa | 1041.29 ± 0.56
308.15 K, 55000 kPa | 1044.4 ± 0.56
308.15 K, 60000 kPa | 1047.43 ± 0.57
308.15 K, 65000 kPa | 1050.39 ± 0.58
313.15 K, 100 kPa | 998.5 ± 0.52
313.15 K, 2000 kPa | 1000.23 ± 0.52
313.15 K, 5000 kPa | 1002.93 ± 0.52
313.15 K, 7000 kPa | 1004.7 ± 0.52
313.15 K, 10000 kPa | 1007.28 ± 0.52
313.15 K, 15000 kPa | 1011.45 ± 0.52
313.15 K, 20000 kPa | 1015.45 ± 0.53
313.15 K, 25000 kPa | 1019.32 ± 0.53
313.15 K, 30000 kPa | 1023.04 ± 0.53
313.15 K, 35000 kPa | 1026.65 ± 0.54
313.15 K, 40000 kPa | 1030.14 ± 0.54
313.15 K, 45000 kPa | 1033.52 ± 0.55
313.15 K, 50000 kPa | 1036.79 ± 0.55
313.15 K, 55000 kPa | 1039.99 ± 0.56
313.15 K, 60000 kPa | 1043.07 ± 0.56
313.15 K, 65000 kPa | 1046.08 ± 0.57
318.15 K, 100 kPa | 993.03 ± 0.52
318.15 K, 2000 kPa | 994.81 ± 0.52
318.15 K, 5000 kPa | 997.59 ± 0.52
318.15 K, 7000 kPa | 999.4 ± 0.52
318.15 K, 10000 kPa | 1002.05 ± 0.52
318.15 K, 15000 kPa | 1006.33 ± 0.52
318.15 K, 20000 kPa | 1010.45 ± 0.52
318.15 K, 25000 kPa | 1014.42 ± 0.53
318.15 K, 30000 kPa | 1018.23 ± 0.53
318.15 K, 35000 kPa | 1021.93 ± 0.53
318.15 K, 40000 kPa | 1025.49 ± 0.54
318.15 K, 45000 kPa | 1028.94 ± 0.54
318.15 K, 50000 kPa | 1032.3 ± 0.55
318.15 K, 55000 kPa | 1035.54 ± 0.55
318.15 K, 60000 kPa | 1038.69 ± 0.56
318.15 K, 65000 kPa | 1041.75 ± 0.57
323.15 K, 100 kPa | 987.55 ± 0.52
323.15 K, 2000 kPa | 989.38 ± 0.52
323.15 K, 5000 kPa | 992.24 ± 0.52
323.15 K, 7000 kPa | 994.11 ± 0.52
323.15 K, 10000 kPa | 996.84 ± 0.52
323.15 K, 15000 kPa | 1001.25 ± 0.52
323.15 K, 20000 kPa | 1005.47 ± 0.52
323.15 K, 25000 kPa | 1009.52 ± 0.52
323.15 K, 30000 kPa | 1013.45 ± 0.53
323.15 K, 35000 kPa | 1017.21 ± 0.53
323.15 K, 40000 kPa | 1020.87 ± 0.53
323.15 K, 45000 kPa | 1024.41 ± 0.54
323.15 K, 50000 kPa | 1027.81 ± 0.54
323.15 K, 55000 kPa | 1031.14 ± 0.55
323.15 K, 60000 kPa | 1034.36 ± 0.55
323.15 K, 65000 kPa | 1037.48 ± 0.56
328.15 K, 100 kPa | 982.01 ± 0.52
328.15 K, 2000 kPa | 983.93 ± 0.52
328.15 K, 5000 kPa | 986.87 ± 0.52
328.15 K, 7000 kPa | 988.79 ± 0.52
328.15 K, 10000 kPa | 991.61 ± 0.52
328.15 K, 15000 kPa | 996.12 ± 0.52
328.15 K, 20000 kPa | 1000.47 ± 0.52
328.15 K, 25000 kPa | 1004.64 ± 0.52
328.15 K, 30000 kPa | 1008.65 ± 0.52
328.15 K, 35000 kPa | 1012.52 ± 0.53
328.15 K, 40000 kPa | 1016.24 ± 0.53
328.15 K, 45000 kPa | 1019.86 ± 0.53
328.15 K, 50000 kPa | 1023.37 ± 0.54
328.15 K, 55000 kPa | 1026.73 ± 0.54
328.15 K, 60000 kPa | 1030.01 ± 0.55
328.15 K, 65000 kPa | 1033.2 ± 0.55
333.15 K, 100 kPa | 976.49 ± 0.52
333.15 K, 2000 kPa | 978.46 ± 0.52
333.15 K, 5000 kPa | 981.49 ± 0.52
333.15 K, 7000 kPa | 983.47 ± 0.52
333.15 K, 10000 kPa | 986.36 ± 0.52
333.15 K, 15000 kPa | 991.02 ± 0.52
333.15 K, 20000 kPa | 995.46 ± 0.52
333.15 K, 25000 kPa | 999.74 ± 0.52
333.15 K, 30000 kPa | 1003.86 ± 0.52
333.15 K, 35000 kPa | 1007.82 ± 0.52
333.15 K, 40000 kPa | 1011.63 ± 0.53
333.15 K, 45000 kPa | 1015.34 ± 0.53
333.15 K, 50000 kPa | 1018.9 ± 0.53
333.15 K, 55000 kPa | 1022.36 ± 0.54
333.15 K, 60000 kPa | 1025.71 ± 0.54
333.15 K, 65000 kPa | 1028.94 ± 0.55
338.15 K, 100 kPa | 970.87 ± 0.52
338.15 K, 2000 kPa | 972.92 ± 0.52
338.15 K, 5000 kPa | 976.06 ± 0.52
338.15 K, 7000 kPa | 978.09 ± 0.52
338.15 K, 10000 kPa | 981.08 ± 0.52
338.15 K, 15000 kPa | 985.87 ± 0.52
338.15 K, 20000 kPa | 990.45 ± 0.52
338.15 K, 25000 kPa | 994.85 ± 0.52
338.15 K, 30000 kPa | 999.06 ± 0.52
338.15 K, 35000 kPa | 1003.09 ± 0.52
338.15 K, 40000 kPa | 1007.02 ± 0.52
338.15 K, 45000 kPa | 1010.79 ± 0.53
338.15 K, 50000 kPa | 1014.44 ± 0.53
338.15 K, 55000 kPa | 1017.97 ± 0.53
338.15 K, 60000 kPa | 1021.38 ± 0.54
338.15 K, 65000 kPa | 1024.7 ± 0.54
